{"source": "patent US6465007B1", "about": "“Transgene expression in polarized cells” (Genzyme Corporation, priority 1998, dated 2002)", "key": {"[1]": {"system": "polarized NHBE cells", "experiment": "Binding and internalization of cationic lipid:pDNA complexes (TOTO-1 label, trypan blue quenching)", "settings": "Table 1; grades Very Effective / Mildly Effective", "experimental": "Cells were incubated with TOTO-1 or Rh-PE labeled complexes at 37° C. for the times noted in the figure legends. Following incubation, cells were washed 7 times with cold PBS and then fixed in 2% paraformadehyde for 20 min at 4° C. The membrane of the insert was removed and mounted using immuno-mount (Shandon, Pittsburgh, Pa.) containing 2 μg/ml DAPI (Molecular Probes). Bound and internalized complexes were observed under a fluorescence microscope (Olympus, AX-70). To observe only internalized complexes, cells were washed 2 times with cold PBS and then the fluorescence of surface bound complexes was quenched by a 10 min incubation with trypan blue (1 mg/ml; Diagnostic Systems, Inc., Gibbstown, N.J.) on ice. Cells were then washed an additional 5 times with cold PBS, fixed and mounted.\nPolarized NHBE cells were cultured using a modified procedure based on the methods described by Yamaya et al., American Journal of Physiology, 265:L170-L177 (1993), Jiang et al., Science, 262:424-427 (1993) and Gray et al., American Journal of Respiratory Cell & Molecular Biology, 14:104-112 (1996). Briefly, first passage NHBE cells were plated at a density of 2.5×10^5 cells/cm^2 onto inserts (Millicell-PCF, 0.4 μm pore size, Millipore) coated with human placental collagen (Sigma). The culture medium was the same as that described above for growing NHBE cells as islands. Cultures were maintained under air-liquid interface conditions starting at day 3 following the initial seeding. Cells were considered ready for use when the trans-epithelial resistance was •1000 Ωcm^2."}, "[2]": {"system": "mouse nose", "settings": "cited from earlier work"}, "[3]": {"system": "mouse trachea", "experiment": "Intranasal instillation of Ad2βgal-4, X-gal staining of airways", "format": "in vivo", "experimental": "Female BALB/c mice 9-12 weeks of age were purchased from Taconic (Germantown, N.Y.). In some groups, mice were instilled intranasally with 25 μl of a solution containing EGTA (pH 7.5), followed by 25 μl of 5% sucrose in PBS containing Adβgal-4 (2×10^8 IU). In other groups, mice were co-instilled with 25 μl of a solution prepared by mixing equal volumes of a 2× (4×10^8 IU/25 μl) Ad2βgal-4 solution in 10% sucrose with 2×EGTA prior to instillation.\nCytochemical localization of Ogal expression in the trachea was observed using 5-bromo-4-chloro-3-indolyl-β-D-galactopyranoside (X-gal; Sigma). In brief, cannulated mouse lungs were fixed for 10 min by infusion of a fixing solution (2% paraformaldehyde and 0.2% glutaraldehyde in PBS). The lungs were then rinsed twice with 50 mM glycine in PBS, filled with X-gal solution, and stained overnight. Staining was stopped by transfering the samples into the fixing solution.\nTrachea with staining levels were defined on a scale of 0 to 3, 0 indicating no cells staining for βgal, and a value of 3 indicating a large number of cells positive for the transgene. To evaluate the effect of EGTA concentration on AdV-mediated gene transfer in the trachea, mice were pre-treated with various concentrations of EGTA 0.5 h before AdV instillation. In some animals, AdV and EGTA were co-instilled. To exclude the possibility that any observed enhancement of expression was due to a hyperosmotic effect of the EGTA solution, a 20% mannitol solution (osmolarity similar to 0.4M EGTA) was included as a control in both the pre-treatment and co-instillation models."}, "[4]": {"experiment": "Stabilization of cationic lipid:pDNA complexes by PEG-containing lipid", "format": "physicochemical", "settings": "1.14 mol % relative to total lipid", "experimental": "For example, at 1.14 mol % DMPE-PEG5000 (relative to the amount of total lipid), cationic lipid:pDNA complexes could be stabilized at pDNA concentrations exceeding 20 mM. Without PEG-containing lipids, a salt excipient, which is not preferred since an ionic excipient also depresses transfection activity, is required to maintain the lipid:pDNA ratio of the complex during certain methods such aerosolization. For more information regarding use of PEG derivatives the following references are specifically incorporated by reference: Simon J. Eastman et al., Human Gene Therapy, 8, pp. 765-773 (1997); Simon J. Eastman et al. Human Gene Therapy, p. 8, pp. 313-322 (1997)."}, "[5]": {"system": "NHBE cells", "experiment": "Cell proliferation assay, [methyl-3H]-thymidine incorporation into DNA", "format": "cell-based, human", "experimental": "The proliferation of NHBE cells was assessed by measuring the amount of [methyl-^3H] thymidine incorporation into DNA (Fasbender et al., Gene Therapy, 4:1173-1180, 1997). [Methyl-^3H] thymidine (5 μCi/ml; Amersham, Arlington Heights, Ill.) was added to culture medium on the basal side of polarized NHBE cells which had been pre-treated with either Opti-MEM or Ca^2+-free medium. After 4 h, both groups of cells were washed 3 times with PBS and then lysed in a buffer containing 0.2% SDS, 100 mM Tris (pH=7.0), 5 mM EDTA, 200 mM NaCl, and 0.5 mg/ml proteinase K. The lysate was incubated at 65° C. for 30 min, microcentrifuged for 5 min and the supernatant placed into a fresh tube. An equal volume of isopropanol was added to precipitate the DNA. The precipitated DNA pellet was washed twice with 70% ethanol, dried, and resuspended in a 10 mM Tris-HCl, 0.5 mM EDTA buffer, pH 8.0. The DNA concentration was determined using A260/280 measurements. Tritium counts were measured using a Beckman LS6500 scintillation counter.\n(§1) To inhibit NHBE cell proliferation, aphidicolin (0.5 μg/ml; Sigma) was added to culture medium on the basal side of the polarized NHBE cells for 18 h at 37° C. The cells were then transfected as described above except that the concentrations of cationic lipid and pDNA were 80 and 107 μM, respectively. After transfection, aphidicolin was present in the culture medium until the cells were harvested. […] Retinoic acid enhanced the inhibitory effect of aphidicolin on cell proliferation (Chou, R. H. et al., Cell & Tissue Kinetics, 18:387-97, 1985)."}, "[6]": {"system": "polarized NHBE cells", "experiment": "In vitro transfection with GL-67:pCF1-SEAP, secreted alkaline phosphatase in apical supernatant", "format": "cell-based, human", "settings": "0.5 μg/ml, 18 h before and after transfection, with or without Ca2+-free medium; FIG. 2A", "experimental": "Prior to transfection, polarized NHBE cells on inserts were incubated in either Opti-MEM, Opti-MEM containing 0.1% EGTA, or in Ca^2+-free media (Gibco) in both sides of the insert for 30 min at 37° C. The cells were then washed 3 times with Opti-MEM, and incubated with unlabeled GL-67:pCF1-SEAP (40:53 μM) for 4 h at 37° C., after which they were washed 3 times with Opti-MEM. One ml of culture medium then was added to the outside of the insert (basal side) and 100 μl added to the inside of the insert (apical side). The supernatant from the apical side was collected on day 2 after transfection, heated at 65° C. for 1 h to denature endogenous alkaline phosphatases (Berger et al., Gene, 1988), and assayed in triplicate for secreted alkaline phosphatase (SEAP) activity using an alkaline phosphatase reagent (Sigma) and human placental alkaline phosphatase (Calbiochem, La Jolla, Calif.) as a standard.\nas §1"}, "[7]": {"system": "CF patients", "settings": "cited from earlier work"}, "[8]": {"settings": "0.5 μg/ml in culture medium containing 50 nM retinoic acid"}}}
{"compound": "C[C@H](CCC(=O)NCC(=O)[O-])[C@H]1CC[C@H]2[C@@H]3[C@H](O)C[C@@H]4C[C@H](O)CC[C@]4(C)[C@H]3C[C@H](O)[C@]12C.[Na+]", "note": "[Sodium glycocholate, sodium glycocholate]", "values": [{"measurement": "Effects of Tight Junction Disrupting Compounds on Cationic Amphiphile: DNA Complex Binding", "setting": "[1]", "result": "Mildly Effective"}]}
{"compound": "CCCCCCCCCC(=O)O[C@H](CC(=O)[O-])C[N+](C)(C)C", "note": "[Decanoylcamitine, decanoylcarnitine]", "values": [{"measurement": "Effects of Tight Junction Disrupting Compounds on Cationic Amphiphile: DNA Complex Binding", "setting": "[1]", "result": "Mildly Effective"}]}
{"compound": "CCCCCCCCCC(=O)[O-].[Na+]", "note": "[Sodium Caprate, sodium caprate]", "values": [{"measurement": "Effects of Tight Junction Disrupting Compounds on Cationic Amphiphile: DNA Complex Binding", "setting": "[1]", "result": "Mildly Effective"}]}
{"compound": "polidocanol", "values": [{"measurement": "AdV-mediated gene expression in respiratory epithelial cells", "setting": "[2]", "result": "enhanced AdV-mediated gene expression"}]}
{"compound": "OC[C@@H](O)[C@@H](O)[C@H](O)[C@H](O)CO", "note": "[mannitol]", "values": [{"measurement": "X-gal staining in the trachea", "setting": "[3]; 20% pre-treatment, compared with AdV alone, FIG. 4", "result": "not different"}, {"measurement": "enhancement in gene transfer", "setting": "[3]; pre-treating with hyperosmotic solution, FIGS. 4 & 5A", "result": "No comparible enhancements"}]}
{"compound": "polyethylene glycol 5000-dimyristoylphosphatidylethanolamine [DMPE-PEG5000]", "values": [{"measurement": "pDNA concentration at which cationic lipid:pDNA complexes could be stabilized", "setting": "[4]", "result": "exceeding 20 mM"}]}
{"compound": "C[C@@]1(CO)[C@H](O)CC[C@@]2(C)[C@H]1CC[C@H]1C[C@@H]3C[C@@]12CC[C@]3(O)CO", "note": "[aphidicolin]", "values": [{"measurement": "inhibition of proliferation of NHBE cells", "setting": "[5]; [8]", "result": "sufficient to inhibit proliferation"}, {"measurement": "toxicity", "setting": "[5]; [8]", "result": "minimal toxicity"}, {"measurement": "[methyl-3H]-thymidine incorporation", "setting": "[5]; NHBE cells grown on plastic, presence of aphidicolin", "result": "6,600±600 cpm/μg DNA"}, {"measurement": "effect on gene expression from polarized NHBE cells", "setting": "[6]", "result": "no effect on gene expression"}]}
{"compound": "O=C(O)CN(CCN(CC(=O)O)CC(=O)O)CC(=O)O", "note": "[EDTA, Ethylenediaminetetraacetic acid]", "values": [{"measurement": "Effects of Tight Junction Disrupting Compounds on Cationic Amphiphile: DNA Complex Binding", "setting": "[1]", "result": "Very Effective"}, {"measurement": "toxic side-effects", "setting": "[7]; 0.2 g in 10 ml injected, or 0.6 g in 300 ml nebulized over 24 h, via tracheostomy once per day for 3 days", "result": "No toxic side-effects were noted"}, {"measurement": "adverse effects", "setting": "[7]; children with CF, aerosol of 0.05M 3 times/day for 2 weeks", "result": "no adverse effects"}, {"measurement": "tolerability", "setting": "[7]; children with CF, aerosol of 0.1 M 3 times/day for 2 weeks", "result": "Three out of ten could not tolerate"}, {"measurement": "respiratory function", "setting": "[7]; same phase I trial", "result": "remained unchanged"}, {"measurement": "serum calcium and magnesium levels", "setting": "[7]; same phase I trial", "result": "remained normal"}]}
